Values after ≈ are worked out from the molar mass of the structure shown.

As usually defined, the MBC is the smallest concentration meeting the test's criterion for killing. A lower MBC goes with greater bactericidal potency. By MIC is commonly meant the least concentration at which growth counts as inhibited.

The subject of test [1] is S. epidermidis ATCC 12228. As to the kind of experiment: Planktonic susceptibility (MIC/MBC), 96-well broth microdilution. It is filed as cell-based, Staphylococcus epidermidis. To be noted: Staphylococcus epidermidis; for MBC: ATCC12228; for MIC: ATCC12228, planktonic, overnight 37°C in MHB. As to the method:
(§1) All bacterial strains subjected to testing had been stored at −70°C prior to the experiment. The experiment commenced by streaking small amounts of the frozen bacterial samples onto Muller-Hinton agar (MHA) culture medium (BD Bacto, Oxoid, Basingstoke, UK Cat# X296B) and allowing for overnight incubation. Bacteria were re-cultured on MHA plates as required to confirm colony morphology and lack of contamination. Strains tested were P. aeruginosa ATCC 27853, E. coli ATCC 25922, Staphylococcus aureus ATCC 25923, MRSA ATCC 33591, S. epidermidis ATCC 12228, Klebsiella pneumoniae ATCC, P. mirabilis ATCC 35659, and 10 clinical isolates of MRSA from Foothills Hospital, Calgary, Canada. To prepare for susceptibility testing, a protocol modified from Lemire et al was used ([28]). MHB was swab-inoculated from MHA colonies and shake-incubated until turbid. Dilution of the broth with 0.9% saline was performed as necessary to match a 1.0 McFarland standard.
(§2) MIC and MBC assessments were conducted on all bacterial strains using 96-well microtiter plates. To prepare the wells for bacteria, serial dilutions of the antibacterial agents were carried out along the rows of two microtiter plates. The antibacterials were 2-fold diluted with Mueller-Hinton broth (MHB) in each column, reaching a volume of 75 µL. The 1.0 McFarland standard was diluted 15-fold in MHB, and 75 µL of inoculum was added to the wells treated with antibacterials, resulting in a total volume of 150 µL. The microtiter plates were covered and then shake-incubated overnight at 150 rpm and 37°C. MIC was determined based on visible bacterial growth. In cases of antibacterial opacity or ambiguous results, streaking of well cultures on MHA, overnight incubation, and subsequent comparison with controls were performed. MBC was determined by transferring 3 µL of culture from all MIC microtiter plate wells to 147 µL of Mueller-Hinton broth in fresh plates. These plates were shake-incubated overnight at 150 rpm and 37°C, and bacterial growth was visually inspected.
(In broth dilution the organism is exposed to a series of concentrations in liquid medium.)

The test system of test [2] is MRSA ATCC 33591. The description is as above. It is filed as cell-based, methicillin-resistant S. aureus. To be noted: Staphylococcus aureus, MRSA reference strain. How it is done:
as §1
as §2, with “In cases of antibacterial opacity or ambiguous results, streaking of well cultures on MHA, overnight incubation, and subsequent comparison with controls were performed.” left out

The subject of test [3] is 10 clinical isolates of MRSA from Foothills Hospital, Calgary. As to the kind of experiment: Planktonic susceptibility (MIC/MBC) of MRSA clinical isolates. It is filed as cell-based, methicillin-resistant S. aureus. As to conditions: Staphylococcus aureus. How it is done:
as §1
as §2, with “In cases of antibacterial opacity or ambiguous results, streaking of well cultures on MHA, overnight incubation, and subsequent comparison with controls were performed.” left out

Test [4] concerns Klebsiella pneumoniae ATCC. As to the kind of experiment: Planktonic susceptibility (MIC/MBC), 96-well broth microdilution. It is filed as cell-based. As to conditions: K. pneumonia; for MIC: planktonic, overnight 37°C in MHB. As to the method: as §1, §2
The subject of test [5] is Staphylococcus aureus ATCC 25923. The description is as above. It is filed as cell-based. To be noted: Staphylococcus aureus, ATCC25923, S. aureus; for MIC: planktonic, overnight 37°C in MHB. How it is done:
as §1, §2

Test [6] concerns P. mirabilis ATCC 35659. The test is described as above. It is filed as cell-based. As to conditions: Proteus mirabilis; for MBC: ATCC35659; for MIC: ATCC35659, planktonic, overnight 37°C in MHB. How it is done: as §1, §2
Test [7] deals with E. coli ATCC 25922. The test is described as above. It is filed as cell-based. To be noted: Escherichia coli. As to the method: as §1, §2
Test [8] deals with P. aeruginosa ATCC 27853. Described as above. It is filed as cell-based. As to conditions: Pseudomonas aeruginosa. As to the method: as §1, §2
The subject of test [9] is Gram-positive bacteria. Also on record: method as in PMID 12534815. As to conditions: cited from earlier work.
The test system of test [10] is Gram-negative pathogens. Also on record: method as in PMID 12534815. As to conditions: cited from earlier work.

As to `O=C(Nc1ccc(Cl)cc1)Nc1cc(S(F)(F)(F)(F)F)ccc1Cl` [EBP-40, 1-(2-Chloro-5-(pentafluoro-λ^6-sulfanyl)phenyl)-3-(4-chlorophenyl)urea], the minimum bactericidal concentration (MBC) was 900 µM (≈ 366 µg/mL) in test [1]; 610 µM (≈ 248 µg/mL) in [2]; 1200 µM (≈ 489 µg/mL) in [3] (MRSA #1 clinical isolate); 40 µM (≈ 16.3 µg/mL) in [3] (MRSA #2 clinical isolate); 160 µM (≈ 65.2 µg/mL) in test [3] (MRSA #3 clinical isolate); 160 µM (≈ 65.2 µg/mL) in test [3] (MRSA #4 clinical isolate). Also, the MBC was 40 µM (≈ 16.3 µg/mL) in test [3] (MRSA #5 clinical isolate); 160 µM (≈ 65.2 µg/mL) in test [3] (MRSA #6 clinical isolate); 80 µM (≈ 32.6 µg/mL) in test [3] (MRSA #7 clinical isolate); 80 µM (≈ 32.6 µg/mL) in test [3] (MRSA #8 clinical isolate); 80 µM (≈ 32.6 µg/mL) in test [3] (MRSA #9 clinical isolate); over 5000 µM in test [4]. Besides, the MBC in test [5] was found to be 1200 µM (≈ 489 µg/mL); in test [6], 625 µM (≈ 254 µg/mL). For the same molecule, the MIC is 1200 µM (≈ 489 µg/mL) in test [1]; 150 µM (≈ 61.1 µg/mL) in test [2] (planktonic, overnight 37°C in MHB); 20 µM (≈ 8.14 µg/mL) in [3] (MRSA #1 clinical isolate); 20 µM (≈ 8.14 µg/mL) in test [3] (MRSA #2 clinical isolate); 80 µM (≈ 32.6 µg/mL) in test [3] (MRSA #3 clinical isolate); 40 µM (≈ 16.3 µg/mL) in test [3] (MRSA #4 clinical isolate). Moreover, the MIC is 20 µM (≈ 8.14 µg/mL) in test [3] (MRSA #5 clinical isolate); 40 µM (≈ 16.3 µg/mL) in [3] (MRSA #6 clinical isolate); 40 µM (≈ 16.3 µg/mL) in [3] (MRSA #7 clinical isolate); 40 µM (≈ 16.3 µg/mL) in test [3] (MRSA #8 clinical isolate); 20 µM (≈ 8.14 µg/mL) in test [3] (MRSA #9 clinical isolate); over 5000 µM in test [4]. In addition, the MIC in test [5] came out at 480 µM (≈ 195 µg/mL); in [6], 625 µM (≈ 254 µg/mL).

Consider `CNC(C)C1CCC(N)C(OC2C(N)CC(N)C(OC3OCC(C)(O)C(NC)C3O)C2O)O1` (stereo not shown) [Gen, Gentamicin, reference compound], for which the MBC in [1] was 300 µM (≈ 143 µg/mL); in test [3] (MRSA #1 clinical isolate), 1600 µM (≈ 764 µg/mL); in test [3] (MRSA #2 clinical isolate), 200 µM (≈ 95.5 µg/mL); in test [3] (MRSA #3 clinical isolate), 50 µM (≈ 23.9 µg/mL); in test [3] (MRSA #4 clinical isolate), 50 µM (≈ 23.9 µg/mL); in test [3] (MRSA #5 clinical isolate), 6250 µM (≈ 2990 µg/mL). Further, the MBC in test [3] (MRSA #6 clinical isolate) came to 25000 µM (≈ 11900 µg/mL); in test [3] (MRSA #7 clinical isolate), 1600 µM (≈ 764 µg/mL); in [3] (MRSA #8 clinical isolate) it was 50 µM (≈ 23.9 µg/mL); in test [3] (MRSA #9 clinical isolate), 50 µM (≈ 23.9 µg/mL); in test [3] (MRSA #10 clinical isolate) it was 50 µM (≈ 23.9 µg/mL); in test [7] (ATCC25922), 10 µM (≈ 4.78 µg/mL). The MBC came out at 50 µM (≈ 23.9 µg/mL) in [4], 40 µM (≈ 19.1 µg/mL) in test [5], 1200 µM (≈ 573 µg/mL) in [8] (ATCC27853) and 50 µM (≈ 23.9 µg/mL) in test [6]. Moreover, the MIC in test [1] was found to be 300 µM (≈ 143 µg/mL); in test [3] (MRSA #1 clinical isolate), 100 µM (≈ 47.8 µg/mL); in test [3] (MRSA #2 clinical isolate), 50 µM (≈ 23.9 µg/mL); in [3] (MRSA #3 clinical isolate), 50 µM (≈ 23.9 µg/mL); in test [3] (MRSA #4 clinical isolate), 50 µM (≈ 23.9 µg/mL); in test [3] (MRSA #5 clinical isolate) it was 800 µM (≈ 382 µg/mL). Besides, the MIC in [3] (MRSA #6 clinical isolate) was 3000 µM (≈ 1430 µg/mL); in [3] (MRSA #7 clinical isolate), 50 µM (≈ 23.9 µg/mL); in test [3] (MRSA #8 clinical isolate), 50 µM (≈ 23.9 µg/mL); in [3] (MRSA #9 clinical isolate) it was 50 µM (≈ 23.9 µg/mL); in test [3] (MRSA #10 clinical isolate) it was 50 µM (≈ 23.9 µg/mL); in test [7] (ATCC25922, planktonic, overnight 37°C in MHB), 10 µM (≈ 4.78 µg/mL). Also, the MIC turned out to be 1 µM (≈ 0.478 µg/mL) in test [4]; 40 µM (≈ 19.1 µg/mL) in test [5]; 12 µM (≈ 5.73 µg/mL) in test [8] (ATCC27853, planktonic, overnight 37°C in MHB); 1 µM (≈ 0.478 µg/mL) in [6].

On to `O=C(Nc1ccc(Cl)cc1)Nc1ccc(Cl)c(Cl)c1` [TCC, triclocarban], for which the “antibacterial action against Gram-positive bacteria” value in [9] is reported as “antibacterial action”. The “activity against Gram-negative pathogens” value in [10] is “no activity”.

With `O=C(Nc1ccc(Cl)cc1)Nc1ccc(Cl)c(C(F)(F)F)c1` [cloflucarban, 3-trifluoromethyl-4,4′-dichlorocarbanilide], the “antibacterial action against Gram-positive bacteria” value in test [9] was “antibacterial action”. In [10], the “activity against Gram-negative pathogens” value is reported as “no activity”.

Source of the values: publication PMC11237694, “Novel pentafluorosulfanyl-containing triclocarban analogs selectively kill Gram-positive bacteria” (Microbiology Spectrum, 2024).
